{
  "source": "paper PMC6643834",
  "about": "(ACS Omega, 2018)",
  "key": {"[1]": {"system": "P. aeruginosa PAO1 static biofilms", "assay": "Static biofilm assay, P. aeruginosa", "format": "cell-based, Pseudomonas aeruginosa"}, "[2]": {"system": "P. aeruginosa purine deoxyribonucleotide levels (bacterial RNR)", "assay": "DPA assay for dNTP quantification", "format": "cell-based, P. aeruginosa PAO1", "conditions": "5 mM for 3 h, exponential phase, compared to negative control"}, "class Ia RNR (NrdA)": {"system": "class Ia RNR (NrdA)", "assay": "NrdA expression by Western immunoblot", "format": "cell-based, P. aeruginosa PAO1", "conditions": "5 mM for 3 h, compared to the negative control"}, "[3]": {"system": "P. aeruginosa continuous-flow biofilms", "assay": "Flow cell biofilm assay", "format": "cell-based, Pseudomonas aeruginosa", "conditions": "COMSTAT analysis"}, "[4]": {"system": "B. anthracis Sterne 7700 pXO1–/pXO2–", "assay": "microbe, parasite or virus in culture", "format": "cell-based", "conditions": "Bacillus anthracis, 8 h, read-out: MIC50 Gram-positive Bant"}, "Staph. aureus biofilm": {"system": "Staph. aureus biofilm", "assay": "Static biofilm assay, Staph. aureus", "format": "cell-based, Staphylococcus aureus", "conditions": "treating with CIP"}},
  "data": [
    {"smiles": "Cc1cc(F)ccc1CNO", "note": "[Compound 12, N-(4-Fluoro-2-methylbenzyl)hydroxylamine]", "values": [
      {"measurement": "reduction of established biofilm", "setting": "[1]; after 72 h of treatment, highest concentrations", "value": "above 55%"},
      {"measurement": "reduction of dNTP levels", "setting": "[2]", "value": 67.50, "unit": "%"},
      {"measurement": "induction of NrdA expression (fold)", "setting": "class Ia RNR (NrdA)", "value": 3},
      {"measurement": "decrease of biomass and average thickness", "setting": "[3]", "value": "more than 30%"}
    ]},
    {"smiles": "NC(=O)NO", "note": "[HU, hydroxyurea, reference compound]", "values": [
      {"measurement": "reduction of dNTP levels", "setting": "[2]", "value": 65.45, "unit": "%"}
    ]},
    {"smiles": "COc1ccc(CNO)c(C)c1", "note": "[Compound 17, N-(4-Methoxy-2-methylbenzyl)hydroxylamine]", "values": [
      {"measurement": "MIC50", "setting": "[4]", "value": "< 15", "unit": "µg/mL"}
    ]},
    {"smiles": "O=C(O)c1cn(C2CC2)c2cc(N3CCNCC3)c(F)cc2c1=O", "note": "[CIP, ciprofloxacin, reference compound]", "values": [
      {"measurement": "reduction of preestablished biofilm", "setting": "[1]; CIP 0.5 μg/mL, positive control", "value": "more than 85%"},
      {"measurement": "reduction of Staph. aureus biofilm", "setting": "Staph. aureus biofilm", "value": "around 60%"}
    ]}
  ]
}
